The source of these data is patent US3984547A, “Veterinary feedstuffs” (Bayer Aktiengesellschaft, priority 1971, dated 1976).

The test deals with Escherichia coli C 165. Briefly: ED100 in mice after intraperitoneal infection, Table 3. The following applies: read-out: effective 100% dose (ED100). Format: in vivo. The procedure:
In animal experiments on mice, the effective 100% dose (ED100) in mg/Kg was determined for certain compounds of the invention after intraperitoneal infection and subcutaneous (s.c.) or oral (p.o.) administration of the preparation.

Like-named read-outs stand apart in the source and are kept apart here.

Regarding `CN(C)N=Cc1c(C(=O)O)[n+]([O-])c2ccccc2[n+]1[O-]` [Example 14], the ED100 is 100 mg/kg (C165, oral (p.c. [sic])) and 50 mg/kg (C165, sc, s.c.).
